The record followed here is patent publication US4001263A, “5-Aryl-1,2,3,4-tetrahydro-γ-carbolines” (Pfizer Inc., priority 1975, dated 1977).

Counter-ions that a name gives are not always drawn. Like-named read-outs stand apart in the source and are kept apart here.

By ED50 is commonly meant the dose that gives a 50% effect, or the effect in half of the subjects.

The test deals with amphetamine-induced symptoms in rats. Briefly: antagonism of amphetamine-induced symptoms in rats (block of characteristic amphetamine cage movement behavior). Format: in vivo. To be noted: Rattus norvegicus, ip. From the text:
The tranquilizing agents of the present invention are characterized by relief of such schizophrenic manifestations in humans as hallucinations, hostility, suspiciousness, emotional or social withdrawal, anxiety, agitation and tension. Standard procedures of detecting and comparing tranquilizing activity of compounds in this series and for which there is an excellent correlation with human efficacy is the antagonism of amphetamine-induced symptoms in rats test, as taught by A. Weissman, et al., J. Pharmacol. Exp. Ther., 151, 339 (1966) and by Quinton, et al.,Nature, 200, 178 (1963).
The effects of the compounds of the present invention on prominent amphetamine-induced symptoms were studied in rats by a rating scale modeled after the one reported by Quinton and Halliwell, and Weissman. Groups of five rats were placed in a covered plastic cage measuring approximately 26 cm. × 42 cm. × 16 cm. After a brief period of acclimation in the cage, the rats in each groups were treated intraperitoneally (i.p.) with the test compound. […] On the basis of dose-response data after amphetamine it was possible to determine the effective dose of the compound necessary to antagonize or block the characteristic amphetamine behavior of cage movement for 50 percent of the rats tested (ED50). The time of rating chosen coincides with the peak action of amphetamine which is 60-80 min. after treatment with this agent.
Employing the above-described procedure, the following compounds were tested for their ability to block the behavior effects of amphetamine, the results being reported as the ED50 in mg./kg. at the indicated times: […]

Setting [1] is: rats, i.p., d-amphetamine sulfate 5 mg./kg. i.p. given 1 hr. after test compound, read-out: ED50 to antagonize or block amphetamine behavior, 1 hr.
Where [2] appears, read: rats, i.p., d-amphetamine sulfate 5 mg./kg. i.p. given 5 hrs. after test compound, read-out: ED50 to antagonize or block amphetamine behavior, 5 hrs.
The mark [3] stands for this setting: rats, i.p., d-amphetamine sulfate 5 mg./kg. i.p. given 24 hrs. after test compound, read-out: ED50 to antagonize or block amphetamine behavior, 24 hrs.

With `CN(C)CCCN1c2ccccc2Sc2ccc(Cl)cc21` [chlorpromazine, reference compound], the ED50 (1 h, read-out: ED50 to antagonize or block amphetamine behavior, 1 hr.) was found to be 7 mg/kg.
Regarding `CN1CCc2c(c3cc(Br)ccc3n2-c2ccccc2)C1` [Br, H, CH3], the ED50 under setting [1] lay within 3.2 to 10 mg/kg.
The same measure, in the same setting: for `c1ccc(CN2CCc3c(c4ccccc4n3-c3ccccc3)C2)cc1` [H, H, CH2C6H5, 5-phenyl-2-benzyl-1,2,3,4-tetrahydro-γ-carboline, reference compound] the value was over 32 mg/kg; for `CCN1CCc2c(c3cc(Cl)ccc3n2-c2ccccc2)C1` [Cl, H, C2H5], 3.2 to 10 mg/kg; for `CN1CCc2c(c3ccccc3n2-c2ccccc2)C1` [H, H, CH3, 5-phenyl-2-methyl-1,2,3,4-tetrahydro-γ-carboline, reference compound], 10 to 32 mg/kg.
`CCCN1CCc2c(c3cc(F)ccc3n2-c2ccc(F)cc2)C1` [F, F, n-C3H7, 8-fluoro-5-(p-fluorophenyl)-2-n-propyl-1,2,3,4-tetrahydro-γ-carboline]: the ED50 under setting [1] is 3.2 to 10 mg/kg, the ED50 under setting [2] was over 10 mg/kg and the 50% effective dose (ED50) under setting [3] is over 3.2 mg/kg.
As for `CN1CCc2c(c3cc(F)ccc3n2-c2ccc(F)cc2)C1` [F, F, CH3, 8-Fluoro-5-(p-fluorophenyl)-2-methyl-1,2,3,4-tetrahydro-γ-carboline hydrochloride], the median effective dose (ED50) under setting [1] lay in the range of 1 to 3.2 mg/kg.
In the case of `CN1CCc2c(c3cc(F)ccc3n2-c2ccccc2)C1` [F, H, CH3], the ED50 under setting [1] was 3.2 to 10 mg/kg.
Same read-out and setting: the figure for `CN1CCc2c(c3cc(Cl)ccc3n2-c2ccccc2)C1` [Cl, H, CH3, 8-Chloro-5-phenyl-2-methyl-1,2,3,4-tetrahydro-γ-carboline hydrochloride] is 3.2 to 10 mg/kg.
On to `Fc1ccc(C=CCCN2CCc3c(c4cc(F)ccc4n3-c3ccc(F)cc3)C2)cc1` [F, F, p-FC6H4CHCH(CH2)2, 8-Fluoro-5-(p-fluorophenyl)-2-[4-(p-fluorophenyl)-3-butenyl]-1,2,3,4-tetrahydro-γ-carboline], for which the 50% effective dose (ED50) by setting is: under setting [1], 3.2 to 10 mg/kg; under setting [2], 1 to 3.2 mg/kg; under setting [3], over 3.2 mg/kg.
Consider `CCN1CCc2c(c3cc(F)ccc3n2-c2ccc(F)cc2)C1` [F, F, C2H5, 8-Fluoro-5-(p-fluorophenyl)-2-ethyl-1,2,3,4-tetrahydro-γ-carboline hydrochloride], for which the ED50 runs as follows: under setting [1], 3.2 to 10 mg/kg; under setting [2], over 10 mg/kg; under setting [3], over 10 mg/kg.
On to `CC(C)(C)CCN1CCc2c(c3cc(F)ccc3n2-c2ccc(F)cc2)C1` [F, F, (CH3)3C(CH2)2, 8-fluoro-5-(p-fluorophenyl)-2-(3,3-dimethyl-n-buty)-1,2,3,4-tetrahydro-γ-carboline], for which the ED50 was 1 to 3.2 mg/kg under setting [1], over 10 mg/kg under setting [2] and over 10 mg/kg under setting [3].
